Results taken from US9328374B2, “Selective culture medium and method for detecting carbapenem-resistant bacteria in a test sample” (Institut National de la Sante et de la Recherche Medicale …, priority 2011, dated 2016).
Read-outs that look alike come from different tables or passages of the source.

Tests used:
enterobacterial isolates = assay: MIC of imipenem, ertapenem and meropenem (groups of isolates, other species); assay type: cell-based, Enterobacteriaceae
C. koseri = assay: MIC of imipenem, ertapenem and meropenem; assay type: cell-based
E. aerogenes = assay: MIC of imipenem, ertapenem and meropenem; assay type: cell-based, Enterobacter aerogenes; details: Klebsiella aerogenes, read-out: MIC
C. freundii = assay: MIC of imipenem, ertapenem and meropenem; assay type: cell-based, Citrobacter freundii
E. cloacae = assay: MIC of imipenem, ertapenem and meropenem; assay type: cell-based, Enterobacter cloacae; details: Enterobacter cloacae, read-out: MIC
P. rettgeri = assay: MIC of imipenem, ertapenem and meropenem; assay type: cell-based, Providencia rettgeri
S. typhimurium = assay: MIC of imipenem, ertapenem and meropenem; assay type: cell-based

For `C[C@@H](O)[C@H]1C(=O)N2C(C(=O)O)=C(S[C@@H]3CN[C@H](C(=O)Nc4cccc(C(=O)O)c4)C3)[C@H](C)[C@H]12` [ETP, ertapenem], the MIC (enterobacterial isolates; Example 3, 19 isolates (1 Citrobacter freundii, 2 E. coli, 4 E. cloacae, 12 K. pneumoniae) with porin defect, read-out: MIC values of ertapenem of ertapenem non-susceptible isolates) was over 0.25 µg/mL, the MIC (enterobacterial isolates; S. marcescens 0911033, IMP-1) was over 32 µg/mL and the MIC (enterobacterial isolates; S. marcescens 1008091, VIM-1+ CTX-M-15) was over 32 µg/mL. For the same molecule, the MIC (enterobacterial isolates; S. marcescens C7052, KPC-2 + TEM-1 + SHV-12) was over 32 µg/mL, the MIC (enterobacterial isolates; Serratia marcescens, S. marcescens D6403, KPC-2 + TEM-1, read-out: MIC) was over 32 µg/mL and the MIC (C. koseri; C. koseri VER (OXA-48)) was 2 µg/mL. It also gave an MIC (C. koseri; C. koseri VER, OXA-48) of 2 µg/mL, an MIC (C. koseri; Citrobacter koseri, C. koseri ROU, OXA-48, read-out: MIC) of 2 µg/mL and an MIC (C. koseri; strain C. koseri VER, OXA-48) of 2 µg/mL. The MIC (E. aerogenes; E. aerogenes 1009, TEM-24, non-carbapenemase producer) was 0.12 µg/mL, the MIC (E. aerogenes; E. aerogenes 1085 (TEM-24)) was 0.19 µg/mL and the MIC (E. aerogenes; E. aerogenes 1085, TEM-24, non-carbapenemase producer) was 0.19 µg/mL. It also gave an MIC (E. aerogenes; strain E. aerogenes 1085, TEM-24, non-carbapenemase producer) of 0.19 µg/mL, an MIC (C. freundii; C. freundii MAU, Overexpressed AmpC + TEM-3, non-carbapenemase producer) of 8 µg/mL and an MIC (C. freundii; Citrobacter freundii, C. freundii 1003, CTX-M-15 + TEM-1, non-carbapenemase producer, read-out: MIC) of 0.016 µg/mL. It also gave an MIC (C. freundii; Citrobacter freundii, C. freundii 7767 (wild type), read-out: MIC) of 0.008 µg/mL, an MIC (C. freundii; Citrobacter freundii, C. freundii 7767, (wild type), non-carbapenemase producer, read-out: MIC) of 0.008 µg/mL and an MIC (C. freundii; Citrobacter freundii, C. freundii 10107 (TEM-1 + SHV-12), read-out: MIC) of 0.016 µg/mL. It also gave an MIC (C. freundii; Citrobacter freundii, C. freundii 10107, TEM-1 + SHV-12, non-carbapenemase producer, read-out: MIC) of 0.016 µg/mL, an MIC (C. freundii; Citrobacter freundii, C. freundii 10135 (CTX-M-15), read-out: MIC) of 0.016 µg/mL and an MIC (C. freundii; Citrobacter freundii, C. freundii 10135, CTX-M-15, non-carbapenemase producer, read-out: MIC) of 0.016 µg/mL. It also gave an MIC (C. freundii; Citrobacter freundii, C. freundii STE (NDM-1 + OXA-1 + OXA-9 + OXA-10 + CTX-M-15 + TEM-1), read-out: MIC) of over 32 µg/mL, an MIC (C. freundii; Citrobacter freundii, C. freundii STE, NDM-1 + TEM-1 + CTX-M-15 + VIM-4 + OXA-1 + OXA-9 + OXA-10 + OXA-181, read-out: MIC) of over 32 µg/mL and an MIC (C. freundii; Citrobacter freundii, strain C. freundii 10107, TEM-1 + SHV-12, non-carbapenemase producer, read-out: MIC) of 0.016 µg/mL. It also gave an MIC (C. freundii; Citrobacter freundii, strain C. freundii 10135, CTX-M-15, non-carbapenemase producer, read-out: MIC) of 0.016 µg/mL, an MIC (C. freundii; strain C. freundii MAU, Overexpressed AmpC + TEM-3, non-carbapenemase producer) of 8 µg/mL and an MIC (E. cloacae; E. cloacae 501, OXA-48 + TEM-1 + CTX-M-15) of 16 µg/mL. The MIC (E. cloacae; E. cloacae 1012, TEM-1 + SHV-12, non-carbapenemase producer) was 0.016 µg/mL, the MIC (E. cloacae; E. cloacae 1027, TEM-1 + CTX-M-15, non-carbapenemase producer) was 0.016 µg/mL and the MIC (E. cloacae; E. cloacae 5434 (wild type)) was 0.016 µg/mL. It also gave an MIC (E. cloacae; E. cloacae 5434, (wild type), non-carbapenemase producer) of 0.016 µg/mL, an MIC (E. cloacae; E. cloacae 7725, (wild type), non-carbapenemase producer) of 0.008 µg/mL and an MIC (E. cloacae; E. cloacae 7746, (wild type), non-carbapenemase producer) of 0.064 µg/mL. For the same molecule, the MIC (E. cloacae; E. cloacae 10111 (TEM-1 + CTX-M-15)) was 0.75 µg/mL, the MIC (E. cloacae; E. cloacae 1008029, VIM-1+ CTX-M-3) was over 32 µg/mL and the MIC (E. cloacae; E. cloacae 1008079, IMP-1) was over 32 µg/mL. The MIC (E. cloacae; E. cloacae 1008187, IMP-1 + CTX-M-15) was over 32 µg/mL, the MIC (E. cloacae; E. cloacae (KPC-2)) was 6 µg/mL and the MIC (E. cloacae; E. cloacae BEU, OXA-48 + TEM-1 + CTX-M-15 + SHV-12) was 8 µg/mL. The MIC (E. cloacae; E. cloacae CFVL, KPC-2 + TEM-3) was 2 µg/mL, the MIC (E. cloacae; E. cloacae CLO (CTX-M-15)) was 0.12 µg/mL and the MIC (E. cloacae; E. cloacae CLO, CTX-M-15, non-carbapenemase producer) was 0.12 µg/mL. The MIC (E. cloacae; E. cloacae CVB (VEB-1)) was 0.12 µg/mL, the MIC (E. cloacae; E. cloacae CVB, VEB-1, non-carbapenemase producer) was 0.12 µg/mL and the MIC (E. cloacae; E. cloacae HMG, KPC-2 + TEM-1) was over 32 µg/mL. It also gave an MIC (E. cloacae; E. cloacae HPTU (KPC-2 + TEM-1 + SHV-11)) of 4 µg/mL, an MIC (E. cloacae; E. cloacae HPTU, KPC-2 + TEM-1 + SHV-11) of 4 µg/mL and an MIC (E. cloacae; E. cloacae IR38 (NDM-1 + CTX-M-15)) of 16 µg/mL. The MIC (E. cloacae; E. cloacae IR38, NDM-1 + CTX-M-15) was 16 µg/mL, the MIC (E. cloacae; E. cloacae KAR, VIM-1+ SHV-70) was 0.38 µg/mL and the MIC (E. cloacae; E. cloacae TAW (IMP-8 + SHV-12)) was 0.5 µg/mL. It also gave an MIC (E. cloacae; E. cloacae TAW, IMP-8 + SHV-12) of 0.5 µg/mL, an MIC (E. cloacae; E. cloacae TUR (OXA-48 + SHV-5)) of 0.5 µg/mL and an MIC (E. cloacae; E. cloacae TUR, OXA-48 + SHV-5) of 0.5 µg/mL. For the same molecule, the MIC (E. cloacae; E. cloacae TWA, IMP-8) was 1 µg/mL, the MIC (E. cloacae; strain E. cloacae 10111, TEM-1 + CTX-M-15, non-carbapenemase producer) was 0.75 µg/mL and the MIC (E. cloacae; strain E. cloacae CLO, CTX-M-15, non-carbapenemase producer) was 0.12 µg/mL. The MIC (E. cloacae; strain E. cloacae CVB, VEB-1, non-carbapenemase producer) was 0.12 µg/mL, the MIC (E. cloacae; strain E. cloacae HPTU, KPC-2 + TEM-1 + SHV-11) was 4 µg/mL and the MIC (E. cloacae; strain E. cloacae TAW, IMP-8 + SHV-12) was 0.5 µg/mL. For the same molecule, the MIC (E. cloacae; strain E. cloacae TUR, OXA-48 + SHV-5) was 0.5 µg/mL, the MIC (P. rettgeri; P. rettgeri RAP, OXA-181 + OXA-1) was 1 µg/mL and the MIC (P. rettgeri; Providencia rettgeri, P. rettgeri RAP (OXA-181 + OXA-1), read-out: MIC) was 1 µg/mL. The MIC (P. rettgeri; strain P. rettgeri RAP, OXA-181 + OXA-1) was 1 µg/mL, the MIC (S. typhimurium; S. typhimurium 1081 (CTX-M-1)) was 0.19 µg/mL and the MIC (S. typhimurium; Salmonella enterica, S. typhimurium 1081, CTX-M-1, non-carbapenemase producer, read-out: MIC) was 0.19 µg/mL. For the same molecule, the MIC (S. typhimurium; strain S. typhimurium 1081, CTX-M-1, non-carbapenemase producer) was 0.19 µg/mL.
